# Results published in US20250326753A1, “DUAL CXCR4-BTK INHIBITORS” (X4 Pharmaceuticals, Inc., priority 2022, published 2025).
# Like-named read-outs stand apart in the source and are kept apart here.
# How the values were obtained:
# MEK1 = target: T1, MEK1 (Homo sapiens, UniProt Q02750); test: PanQinase kinase panel: MEK1; type: biochemical; conditions: read-out: INHIBITORY EFFECT @ 1 uM: MEK1
# T1 construct: purchased Reaction Biology Europe GmbH
# Procedure: (§1) Screening procedures were performed in accordance with the company's on-line protocol [accessed on-line Mar.
# (§2) For each kinase, the median value of the cpm of three wells was defined as “low control” (n=3). This value reflects unspecific binding of radioactivity to the plate in the absence of a protein kinase but in the presence of the substrate. Additionally, for each kinase the median value of the cpm of three other wells was taken as the “high control,” i.e. full activity in the absence of any inhibitor (n=3). The difference between high and low control of each enzyme was taken as 100% activity.
# (§3) As part of the data evaluation the low control of each kinase was subtracted from the high control value as well as from their corresponding “compound values”. The residual activity (in %) for each compound well was calculated by using the following formula: Res. Activity (%)=100×[(signal of compound−low control)/(high control−low control)].
# CK1epsilon = target: T2, CK1epsilon (Homo sapiens, UniProt P49674); test: PanQinase kinase panel: CK1epsilon; type: biochemical; conditions: read-out: INHIBITORY EFFECT @ 1 uM: CK1epsilon
# T2 construct: purchased Reaction Biology Europe GmbH
# T2 sequence (P49674 whole entry): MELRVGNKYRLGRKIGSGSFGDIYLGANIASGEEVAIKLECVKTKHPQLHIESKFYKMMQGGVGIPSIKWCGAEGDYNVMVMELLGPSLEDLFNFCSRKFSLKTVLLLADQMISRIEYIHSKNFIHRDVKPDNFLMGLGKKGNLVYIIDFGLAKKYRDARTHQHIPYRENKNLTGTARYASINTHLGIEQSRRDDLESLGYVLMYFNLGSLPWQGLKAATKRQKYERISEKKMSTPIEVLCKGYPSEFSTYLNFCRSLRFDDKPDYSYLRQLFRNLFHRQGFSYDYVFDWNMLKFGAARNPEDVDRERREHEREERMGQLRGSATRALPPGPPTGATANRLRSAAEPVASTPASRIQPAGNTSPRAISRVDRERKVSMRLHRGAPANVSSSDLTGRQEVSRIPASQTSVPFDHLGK
# Procedure: as §1, §2, §3
# RET = target: T3, RET (Homo sapiens, UniProt P07949); test: PanQinase kinase panel: RET; type: biochemical; conditions: read-out: INHIBITORY EFFECT @ 1 uM: RET
# T3 construct: purchased Reaction Biology Europe GmbH
# T3 sequence (P07949 29-1114): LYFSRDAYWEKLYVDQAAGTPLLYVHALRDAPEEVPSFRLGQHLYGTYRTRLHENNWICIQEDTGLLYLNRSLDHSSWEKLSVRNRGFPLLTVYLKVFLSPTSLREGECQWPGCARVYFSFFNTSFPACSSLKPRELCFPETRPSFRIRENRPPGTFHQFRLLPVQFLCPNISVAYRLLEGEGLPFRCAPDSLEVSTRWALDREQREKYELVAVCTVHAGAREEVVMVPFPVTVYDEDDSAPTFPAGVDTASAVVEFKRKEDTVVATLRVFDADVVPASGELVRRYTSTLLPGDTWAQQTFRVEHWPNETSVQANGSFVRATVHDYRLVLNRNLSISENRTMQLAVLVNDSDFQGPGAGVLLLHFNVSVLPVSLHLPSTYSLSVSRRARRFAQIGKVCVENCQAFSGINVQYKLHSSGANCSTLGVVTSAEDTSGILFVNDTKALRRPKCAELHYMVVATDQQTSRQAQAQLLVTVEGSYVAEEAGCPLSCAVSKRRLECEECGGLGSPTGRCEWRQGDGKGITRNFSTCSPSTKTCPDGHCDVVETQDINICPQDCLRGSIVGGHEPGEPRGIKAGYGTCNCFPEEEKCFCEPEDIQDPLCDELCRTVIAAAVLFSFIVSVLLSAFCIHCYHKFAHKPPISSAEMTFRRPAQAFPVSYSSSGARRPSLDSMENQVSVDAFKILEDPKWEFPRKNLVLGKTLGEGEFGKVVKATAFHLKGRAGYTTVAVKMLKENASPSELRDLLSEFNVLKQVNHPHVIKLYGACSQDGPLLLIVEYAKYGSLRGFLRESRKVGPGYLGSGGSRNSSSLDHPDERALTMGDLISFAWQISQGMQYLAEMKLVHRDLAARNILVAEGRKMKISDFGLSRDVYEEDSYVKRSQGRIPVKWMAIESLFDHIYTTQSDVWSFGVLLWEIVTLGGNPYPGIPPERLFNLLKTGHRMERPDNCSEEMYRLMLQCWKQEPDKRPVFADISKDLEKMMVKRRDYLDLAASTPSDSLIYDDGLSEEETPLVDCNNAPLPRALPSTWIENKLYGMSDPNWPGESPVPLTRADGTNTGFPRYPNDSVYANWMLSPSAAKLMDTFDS
# Procedure: as §1, §2, §3
# ABL2 = target: T4, ABL2 (Homo sapiens, UniProt P42684); test: PanQinase kinase panel: ABL2; type: biochemical
# T4 construct: purchased Reaction Biology Europe GmbH
# Procedure: as §1, §2, §3
# TIE2 = target: T5, TIE2 (Homo sapiens, UniProt Q02763); test: PanQinase kinase panel: TIE2; type: biochemical; conditions: read-out: INHIBITORY EFFECT @ 1 uM: TIE2
# T5 construct: purchased Reaction Biology Europe GmbH
# T5 sequence (Q02763 23-1124): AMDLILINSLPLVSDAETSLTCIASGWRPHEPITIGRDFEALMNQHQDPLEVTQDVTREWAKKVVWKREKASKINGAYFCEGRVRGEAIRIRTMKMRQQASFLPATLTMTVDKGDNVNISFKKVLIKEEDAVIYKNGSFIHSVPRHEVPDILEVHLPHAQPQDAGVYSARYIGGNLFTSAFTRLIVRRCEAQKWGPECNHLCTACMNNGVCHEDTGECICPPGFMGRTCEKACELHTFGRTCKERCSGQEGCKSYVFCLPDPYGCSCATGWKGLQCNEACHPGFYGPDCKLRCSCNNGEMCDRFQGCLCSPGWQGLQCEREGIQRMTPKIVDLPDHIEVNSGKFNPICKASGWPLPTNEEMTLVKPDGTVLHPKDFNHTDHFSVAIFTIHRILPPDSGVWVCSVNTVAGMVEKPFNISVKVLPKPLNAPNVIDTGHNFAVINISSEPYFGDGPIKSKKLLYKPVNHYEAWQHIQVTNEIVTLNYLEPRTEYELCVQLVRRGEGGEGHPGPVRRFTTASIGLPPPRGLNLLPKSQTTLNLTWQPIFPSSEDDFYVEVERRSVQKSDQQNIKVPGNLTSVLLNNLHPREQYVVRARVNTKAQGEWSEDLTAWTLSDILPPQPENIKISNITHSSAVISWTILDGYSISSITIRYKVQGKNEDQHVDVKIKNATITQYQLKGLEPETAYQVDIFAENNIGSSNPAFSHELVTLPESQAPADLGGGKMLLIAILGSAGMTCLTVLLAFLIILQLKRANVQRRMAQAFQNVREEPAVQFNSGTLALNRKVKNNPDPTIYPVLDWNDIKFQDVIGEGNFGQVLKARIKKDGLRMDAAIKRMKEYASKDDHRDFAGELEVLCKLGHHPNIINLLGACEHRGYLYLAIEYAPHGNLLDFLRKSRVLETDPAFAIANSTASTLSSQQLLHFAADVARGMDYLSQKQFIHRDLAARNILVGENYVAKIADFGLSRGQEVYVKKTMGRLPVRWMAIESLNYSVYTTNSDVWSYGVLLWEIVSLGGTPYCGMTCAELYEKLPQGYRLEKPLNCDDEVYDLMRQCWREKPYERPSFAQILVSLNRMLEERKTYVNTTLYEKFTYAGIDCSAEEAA
# Procedure: as §1, §2, §3
# DDR2 = target: T6, DDR2 (Homo sapiens, UniProt Q16832); test: PanQinase kinase panel: DDR2; type: biochemical
# T6 construct: purchased Reaction Biology Europe GmbH
# T6 sequence (Q16832 22-855): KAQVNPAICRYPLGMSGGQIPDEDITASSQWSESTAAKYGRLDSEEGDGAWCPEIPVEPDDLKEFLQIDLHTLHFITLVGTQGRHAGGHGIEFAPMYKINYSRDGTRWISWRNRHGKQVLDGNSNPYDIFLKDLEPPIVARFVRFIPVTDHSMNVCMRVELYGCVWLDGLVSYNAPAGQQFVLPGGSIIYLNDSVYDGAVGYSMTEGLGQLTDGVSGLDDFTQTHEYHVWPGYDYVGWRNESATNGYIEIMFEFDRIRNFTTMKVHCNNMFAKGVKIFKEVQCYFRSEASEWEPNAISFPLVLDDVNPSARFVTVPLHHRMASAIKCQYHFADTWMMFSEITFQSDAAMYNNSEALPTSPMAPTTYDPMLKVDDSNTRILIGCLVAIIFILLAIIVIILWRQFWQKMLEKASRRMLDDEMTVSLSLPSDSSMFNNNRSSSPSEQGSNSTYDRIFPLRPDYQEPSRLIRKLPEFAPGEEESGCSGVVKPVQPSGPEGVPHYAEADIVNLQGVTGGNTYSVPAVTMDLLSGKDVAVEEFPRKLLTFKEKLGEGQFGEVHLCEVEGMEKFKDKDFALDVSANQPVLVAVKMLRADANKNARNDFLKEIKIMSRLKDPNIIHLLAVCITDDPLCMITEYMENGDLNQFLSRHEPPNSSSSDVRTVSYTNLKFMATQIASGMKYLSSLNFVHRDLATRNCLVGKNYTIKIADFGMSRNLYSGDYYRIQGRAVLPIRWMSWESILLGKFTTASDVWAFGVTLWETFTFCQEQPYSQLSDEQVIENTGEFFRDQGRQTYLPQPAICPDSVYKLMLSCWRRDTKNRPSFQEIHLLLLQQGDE
# Procedure: as §1, §2, §3
# TEC = target: T7, TEC (Homo sapiens, UniProt P42680); test: PanQinase kinase panel: TEC; type: biochemical; conditions: for inhibition at 1 µM: read-out: INHIBITORY EFFECT @ 1 uM: TEC
# T7 construct: purchased Reaction Biology Europe GmbH
# T7 sequence (P42680 1-631): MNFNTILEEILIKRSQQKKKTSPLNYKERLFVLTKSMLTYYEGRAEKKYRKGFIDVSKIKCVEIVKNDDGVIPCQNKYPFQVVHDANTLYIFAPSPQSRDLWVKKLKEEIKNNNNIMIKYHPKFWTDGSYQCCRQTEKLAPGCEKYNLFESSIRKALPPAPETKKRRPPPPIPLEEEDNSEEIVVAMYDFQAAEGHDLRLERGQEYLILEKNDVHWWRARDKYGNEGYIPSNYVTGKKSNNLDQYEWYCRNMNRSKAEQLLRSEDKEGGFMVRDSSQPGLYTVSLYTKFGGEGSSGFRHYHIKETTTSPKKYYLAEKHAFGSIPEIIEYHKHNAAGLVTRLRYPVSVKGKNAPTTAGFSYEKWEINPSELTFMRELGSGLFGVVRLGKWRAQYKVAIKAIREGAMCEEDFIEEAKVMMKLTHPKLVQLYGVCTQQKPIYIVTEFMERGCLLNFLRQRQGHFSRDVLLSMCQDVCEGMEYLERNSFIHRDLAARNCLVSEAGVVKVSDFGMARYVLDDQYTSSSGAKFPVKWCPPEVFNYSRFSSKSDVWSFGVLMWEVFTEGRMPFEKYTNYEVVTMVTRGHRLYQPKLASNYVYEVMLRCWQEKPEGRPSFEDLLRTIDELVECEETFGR
# Procedure: as §1, §2
# As part of the data evaluation the low control of each kinase was subtracted from the high control value as well as from their corresponding “compound values”.
# MINK1 = target: T8, MINK1 (Homo sapiens, UniProt Q8N4C8); test: PanQinase kinase panel: MINK1; type: biochemical; conditions: read-out: INHIBITORY EFFECT @ 1 uM: MINK1
# T8 construct: purchased Reaction Biology Europe GmbH
# T8 sequence (Q8N4C8 whole entry): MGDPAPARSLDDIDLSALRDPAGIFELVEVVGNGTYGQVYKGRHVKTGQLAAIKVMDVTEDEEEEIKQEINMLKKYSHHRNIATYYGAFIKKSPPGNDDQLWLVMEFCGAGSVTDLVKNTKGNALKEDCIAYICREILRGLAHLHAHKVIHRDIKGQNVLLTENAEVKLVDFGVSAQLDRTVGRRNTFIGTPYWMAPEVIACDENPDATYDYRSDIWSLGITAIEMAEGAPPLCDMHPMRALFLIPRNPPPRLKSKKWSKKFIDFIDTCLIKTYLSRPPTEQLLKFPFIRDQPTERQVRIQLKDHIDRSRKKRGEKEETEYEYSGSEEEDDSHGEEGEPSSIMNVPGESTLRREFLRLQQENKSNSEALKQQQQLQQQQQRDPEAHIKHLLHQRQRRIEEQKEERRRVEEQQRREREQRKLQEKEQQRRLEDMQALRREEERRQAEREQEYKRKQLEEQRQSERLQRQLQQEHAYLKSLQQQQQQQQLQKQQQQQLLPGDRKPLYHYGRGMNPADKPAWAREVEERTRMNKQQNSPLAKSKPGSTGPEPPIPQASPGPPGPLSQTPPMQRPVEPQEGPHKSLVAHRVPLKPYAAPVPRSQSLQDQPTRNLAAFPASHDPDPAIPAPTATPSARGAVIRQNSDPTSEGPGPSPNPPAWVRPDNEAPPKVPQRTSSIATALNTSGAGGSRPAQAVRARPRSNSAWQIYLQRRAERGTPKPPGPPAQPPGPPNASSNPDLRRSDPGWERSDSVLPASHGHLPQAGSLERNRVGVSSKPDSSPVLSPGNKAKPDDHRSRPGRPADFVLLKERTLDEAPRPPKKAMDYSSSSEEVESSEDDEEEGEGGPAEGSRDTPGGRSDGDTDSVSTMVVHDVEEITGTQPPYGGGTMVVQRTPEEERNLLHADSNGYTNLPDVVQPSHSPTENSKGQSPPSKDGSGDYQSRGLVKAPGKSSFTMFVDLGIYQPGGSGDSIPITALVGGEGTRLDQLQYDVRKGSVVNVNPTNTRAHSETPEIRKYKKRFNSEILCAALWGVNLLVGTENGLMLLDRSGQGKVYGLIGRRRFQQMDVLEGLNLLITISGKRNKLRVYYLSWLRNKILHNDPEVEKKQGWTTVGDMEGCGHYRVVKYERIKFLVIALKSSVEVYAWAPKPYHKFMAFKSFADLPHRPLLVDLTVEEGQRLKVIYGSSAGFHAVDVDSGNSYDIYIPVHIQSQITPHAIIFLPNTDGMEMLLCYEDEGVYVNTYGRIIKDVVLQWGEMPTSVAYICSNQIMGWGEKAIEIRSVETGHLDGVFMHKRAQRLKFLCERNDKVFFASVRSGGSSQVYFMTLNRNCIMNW
# Procedure: as §1, §2, §3
# Ramos cell line = Ramos cell line viability assay (CellTiter-Glo, 72 hr); type: cell-based; conditions: Homo sapiens
# Procedure: Inhibition of non-Hodgkin lymphoma B-cell proliferation by compounds of the present invention was evaluated in a Ramos cell line. Ramos is a B lymphocyte cell line that was derived from a patient with Burkitt's Lymphoma.
# Cell viability was analyzed with the CellTiter-Glo® Luminescent Cell Viability Assay Kit (G7572, Promega), according to the manufacturer's instruction. Cells were seeded into a 96-well/384-well plate and then incubated in 5% CO2 at 37° C. overnight. Compounds were added to the cells, with 9-10 dose points in duplicates in 3-fold dilution from a top concentration of 30 μM, and incubated in 5% CO2 at 37° C. for 72 hr. The 96-well/384-well plate was equilibrated at room temperature for 30 min. 50 μl/25 μl of CellTiter-Glo® Reagent was added to each well and mixed for 2 min on an orbital shaker to induce cell lysis. The 96-well/384-well plate was incubated at room temperature for 10 min to stabilize luminescent signal. Luminescence was detected on a PerkinElmer EnVision Multimode Plate Reader as relative luminescence units (RLU).
# [1] = read-out: INHIBITORY EFFECT @ 1 uM: ABL2
# [2] = read-out: INHIBITORY EFFECT @ 1 uM: DDR2
# [3] = at 1 μM, read-out: inhibition of DDR2
# [4] = class, read-out: Ramos viability IC50
# T1 sequence (Q02750 whole entry): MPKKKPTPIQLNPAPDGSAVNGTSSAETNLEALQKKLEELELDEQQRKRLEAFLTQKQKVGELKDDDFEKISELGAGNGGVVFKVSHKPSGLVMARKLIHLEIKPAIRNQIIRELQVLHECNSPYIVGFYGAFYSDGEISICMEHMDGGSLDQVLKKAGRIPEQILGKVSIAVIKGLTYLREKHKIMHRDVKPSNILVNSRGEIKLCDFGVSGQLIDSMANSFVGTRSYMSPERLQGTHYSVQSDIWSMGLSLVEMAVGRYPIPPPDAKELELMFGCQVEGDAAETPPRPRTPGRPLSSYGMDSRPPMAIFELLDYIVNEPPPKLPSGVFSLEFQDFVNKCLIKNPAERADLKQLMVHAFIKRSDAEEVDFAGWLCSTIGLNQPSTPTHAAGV
SMILES,inhibition at 1 µM (MEK1),inhibition at 1 µM (CK1epsilon),inhibition at 1 µM (RET),inhibition at 1 µM (ABL2; [1]),inhibition at 1 µM (TIE2),inhibition at 1 µM (DDR2; [2]),inhibition at 1 µM (TEC),inhibition at 1 µM (MINK1),"inhibition at 1 µM (ABL2; at 1 μM, read-out: inhibition of ABL2)",inhibition at 1 µM (DDR2; [3]),IC50 (Ramos cell line; [4]),IC50 (Ramos cell line; read-out: IC50),INHIBITORY EFFECT @ 1 uM: TEC (TEC; 1 uM)
"COc1ccc(F)cc1C(=O)NCc1ccc(-c2nn([C@@H](C)C(F)(F)F)c(N)c2C(N)=O)cc1 [LOXO-305, pirtobrutinib]",< 50%,< 50%,50 to 69%,< 50%,< 50%,< 50%,90 to 100%,< 50%,–,–,–,–,–
"Cc1cccnc1[C@H]1CCC[C@@H](c2ncccc2C)N1CCN1CCN(C(=O)c2ccc(-c3cc4c(-c5cccc(NC(=O)c6ccccc6)c5C)ncnc4[nH]3)cc2)CC1 [Compound I-10, N-(3-(6-(4-(4-(2-((2R,6S)-2,6-bis(3-methylpyridin-2-yl)piperidin-1-yl)ethyl)piperazine-1-carbonyl)phenyl)-7H-pyrrolo[2,3-d]pyrimidin-4-yl)-2-methylphenyl)benzamide]",< 50%,< 50%,< 50%,70 to 89%,< 50%,70 to 89%,70 to 89%,< 50%,50 to 89%,50 to 89%,2000 to 4000 nM,2670 nM,–
Cc1cccnc1[C@H]1CCC[C@@H](c2ncccc2C)N1CCCCNC(=O)[C@@H]1CC[C@@H](Nc2ncnc3[nH]cc(C(=O)c4ccc(Oc5ccccc5)cc4Cl)c23)CO1 [Compound I-16],–,–,–,–,–,–,–,–,–,–,1000 to 1500 nM,1480 nM,–
"C=CC(=O)N1CCC([C@@H]2CCNc3c(C(N)=O)c(-c4ccc(Oc5ccccc5)cc4)nn32)CC1 [Zanubrutinib, (7S)-2-(4-phenoxyphenyl)-7-(1-prop-2-enoylpiperidin-4-yl)-4,5,6,7-tetrahydropyrazolo[1,5-a]pyrimidine-3-carboxamide]",< 50%,< 50%,< 50%,< 50%,< 50%,< 50%,–,< 50%,–,–,≥ 4000 nM,11900 nM,++++ (90%-100% Inhibition at 1 uM)
Cc1cccnc1[C@H]1CCC[C@@H](c2ncccc2C)N1CCCCNC(=O)OC[C@@H]1CC[C@@H](Nc2ncnc3[nH]cc(C(=O)c4ccc(Oc5ccccc5)cc4Cl)c23)CO1 [Compound I-18],–,–,–,–,–,–,–,–,–,–,1000 to 1500 nM,1330 nM,–
"O=C(c1ccc(Oc2ccccc2)cc1Cl)c1c[nH]c2ncnc(N[C@@H]3CC[C@@H](CO)OC3)c12 [ARQ-531, (2-chloro-4-phenoxyphenyl) (4-(((3R,6S)-6-(hydroxymethyl)tetrahydro-2H-pyran-3-yl)amino)-7H-pyrrolo[2,3-d]pyrimidin-5-yl) methanone]",50 to 69%,50 to 69%,90 to 100%,–,< 50%,50 to 69%,90 to 100%,50 to 69%,–,≥ 50%,–,–,–
